Test results taken from US20110165115A1, “SYNERGISTIC ATTRACTANTS FOR PESTIFEROUS SOCIAL INSECTS” (STERLING INTERNATIONAL INC., priority 2010, published 2011).

Tests used:
[1] = system: V. consobrina; type: in vivo, Vespula consobrina; details: Exp 1; HIPV added to WHY attractant in the top chamber, or WHY alone
Experimental: Three field trapping experiments were carried out during late July to early August 2009, in residential and woody areas around Spokane, Wash., USA, using the newly marketed Rescue® W•H•Y traps (www.rescue.com). As used herein, the W•H•Y trap is a trap in accordance with the description of United States Patent Application Publication No. 2009/0151228. The W•H•Y trap has a top chamber and a bottom chamber. The top chamber is baited with two attractants—one of which is a solid contained in a vial (2-methyl-1-butanol) and the other a liquid mixed with water (acetic acid), herein referred to as the W•H•Y top attractant. The bottom chamber is baited with a liquid attractant (heptyl butyrate) poured onto a cotton pad, herein referred to as the W•H•Y bottom attractant. Separation of the top and bottom attractants (otherwise antagonistic to each other when released from the same chamber) in two chambers was a design feature of this trap and creates two focal attraction sources from one trap for different species of wasps, hornets, and yellowjackets. Traps were hung 1.5-2.0 m above the ground on either the fence or tree branches ca. 5 m apart within each trap line. For each trapping experiment, six sets of traps were deployed with their initial trap positions within each set being randomized. To minimize positional effects and obtain more replications, wasp collections and trap re-randomization were carried out when ≧10-20 wasps were caught in the best trap. Each replicate lasted several days depending on wasp flight activity. Captured wasps were removed from the traps and kept in the zip-bags before taking back to the laboratory for recording of the species, gender status, and catch. […]
(§1) Trap catch data were converted to proportion (P) of total captured wasps within each replicate. Data were then transformed by arcsin√P to meet the assumptions of normality and homogeneity of variances for ANOVA. Means were compared by ANOVA followed by the Ryan-Einot-Gabriel-Welsh (REGW) multiple Q test (SPSS 16.0 for Windows) at α=0.05.

[2] = system: D. maculata; assay: Field trapping Experiment 1, Rescue W•H•Y traps; type: in vivo, Dolichovespula maculata; details: Exp 1; HIPV added to WHY attractant in the top chamber, or WHY alone
Experimental: Three field trapping experiments were carried out during late July to early August 2009, in residential and woody areas around Spokane, Wash., USA, using the newly marketed Rescue® W•H•Y traps (www.rescue.com). As used herein, the W•H•Y trap is a trap in accordance with the description of United States Patent Application Publication No. 2009/0151228. The W•H•Y trap has a top chamber and a bottom chamber. The top chamber is baited with two attractants—one of which is a solid contained in a vial (2-methyl-1-butanol) and the other a liquid mixed with water (acetic acid), herein referred to as the W•H•Y top attractant. The bottom chamber is baited with a liquid attractant (heptyl butyrate) poured onto a cotton pad, herein referred to as the W•H•Y bottom attractant. Separation of the top and bottom attractants (otherwise antagonistic to each other when released from the same chamber) in two chambers was a design feature of this trap and creates two focal attraction sources from one trap for different species of wasps, hornets, and yellowjackets. Traps were hung 1.5-2.0 m above the ground on either the fence or tree branches ca. 5 m apart within each trap line. For each trapping experiment, six sets of traps were deployed with their initial trap positions within each set being randomized. To minimize positional effects and obtain more replications, wasp collections and trap re-randomization were carried out when ≧10-20 wasps were caught in the best trap. Each replicate lasted several days depending on wasp flight activity. Captured wasps were removed from the traps and kept in the zip-bags before taking back to the laboratory for recording of the species, gender status, and catch.
Experiment 1 (Jul. 22-30, 2009) tested ten synthetic HIPV candidates [(E)-2-hexenal, (Z)-3-hexen-1-ol, (Z)-3-hexenyl acetate, cis-ocimene, linalool, methyl salicylate, geranyl acetate, trans-β-caryophyllene, trans-β-farnesene and (E)-4,8-dimethyl-1,3,7-nonatriene], including several paper wasp EAD-active compounds (see FIG. 2 for details), to determine their potential synergistic effect on the Rescue® W•H•Y trap attractants to paper wasps, yellowjackets, and hornets. Experiment 2 (Aug. 5-13, 2009) tested behavioral responses of the paper wasps and yellowjackets to the Rescue® W•H•Y trap attractants (top attractants only) and its combination with (E)-4,8-dimethyl-1,3,7-nonatriene, one of the EAD-active and behaviorally significant HIPVs, in a dose-response fashion. Experiment 3 (Aug. 5-13, 2009) was conducted to determine the potential behavioral activity of different doses of (E)-4,8-dimethyl-1,3,7-nonatriene alone. The individual (or different doses) HIPVs were loaded into either polyethylene bags or centrifuge tube type of dispensers, and released from the top of the W•H•Y trap chamber. W•H•Y trap attractants (both top and bottom or top only) alone and water (top chamber only) were included in the test as positive and blank controls, respectively. The dispenser types, loading and release rates of the tested semiochemicals are described in Tables 1, 2 and 3.
as §1

[3] = system: Hippodarnia convergens antennae; assay: GC-EAD of synthetic HIPVs on beneficial insect antennae; details: FIG. 6
Experimental: (§2) Aeration samples of the cherry branches (damaged or undamaged/slightly damaged) were injected (3 μl) splitless into a Varian CP-3800 GC equipped with a polar column (HP-INNOWax; 30 m×0.53 mm×1.0 μm film thickness; Agilent Technologies, Wilmington, Del., USA) and a 1:1 effluent splitter that allowed simultaneous flame ionization detection (FID) and electroantennographic detection (EAD) of the European paper wasp (Polistes dominulus) worker antennae to the separated volatile compounds. Helium was used as the carrier gas, and the injector and detector temperatures were 250° C. and 300° C., respectively. Column temperature was 50° C. for 1 min, rising to 240° C. at 10° C./min, and then held for 10 min. The outlet for the EAD was held in a humidified air stream flowing at 0.5 m/sec over the antennal preparation. EAD recordings were made using silver wire-glass capillary electrodes filled with Beadle-Ephrussi Ringer on freshly cut antennae. The antennal signals were stored and analyzed on a PC equipped with a serial IDAC interface box and the program EAD ver. 2.5 (Syntech, Hilversum, The Netherlands). In addition, GC-EAD responses to a synthetic mixture (100 ng/μl each) containing nine known HIPVs including cis-3-hexen-1-ol, cis-3-hexenyl acetate, trans-β-ocimene, (E)-4,8-dimethyl-1,3,7-nonatriene, linalool, methyl salicylate, geranyl acetate, trans-β-caryophyllene and trans-β-farnesene were tested on the P. dominulus workers. (See FIG. 2.) The same chemicals were also tested on beneficial insect antennae from Chrysopa oculata, Myrmeleon crudelis, Podisus maculiventris, and Hippodarnia convergens. (See FIG. 6.) Antennally active peaks in the aeration samples were identified by GC-MS on an HP 6890 GC series coupled with an HP 5973 Mass Selective Detector using the same type of GC column and conditions as described above. Compounds were identified by comparison of retention times with those of authentic standards and with mass spectra of standards.

[4] = system: Podisus maculiventris antennae; assay: as above; details: FIG. 6
Experimental: as §2

[5] = system: Myrmeleon crudelis antennae; assay: as above; details: FIG. 6
Experimental: as §2

[6] = system: Chrysopa oculata antennae; assay: as above; details: FIG. 6
Experimental: as §2

Row | Structure (SMILES) | Total Yellowjacket Catches V. consobrina [1] | Total Yellowjacket Catches D. maculata [2] | EAD-response [3] | EAD-response [4] | EAD-response [5] | EAD-response [6]
1 | C=C/C=C(\C)CCC=C(C)C [(E)-4,8-dimethyl-1,3,7-nonatriene] | 0 | 12 | strong EAD-responses | strong EAD-responses | strong EAD-responses | strong EAD-responses
2 | COC(=O)c1ccccc1O [Methyl Salicylate, methyl salicylate] | 2 | 1 | strong EAD-responses | strong EAD-responses | strong EAD-responses | strong EAD-responses
3 | CC/C=C\CCO [Z-3-Hexanol, (Z)-3-hexen-1-ol] | 0 | 5 |  |  |  | 
4 | CC/C=C\CCOC(C)=O [Z-3-Hexenyl Acetate, (Z)-3-hexenyl acetate] | 1 | 1 | strong EAD-responses | strong EAD-responses | strong EAD-responses | strong EAD-responses
